Experimental data taken from PMC10675077, “Antimicrobial Properties of New Polyamines Conjugated with Oxygen-Containing Aromatic Functional Groups” (Molecules, 2023).
≈ marks a conversion by molar mass, not a printed value.

Experiments:
S. cerevisiae strains = assay: Minimal fungicidal concentration, S. cerevisiae strains; type: cell-based, Saccharomyces cerevisiae; settings: fungistatic = growth on SC-ura plates after incubation at four times the MIC
Method: Once the MIC was known, the samples were prepared as described in the previous section with polyamine concentrations corresponding to the MIC and half, double, and four times its value. After overnight incubation with the microorganisms, 30 μL of a ten-fold dilution of each one was spread in LB (in the case of bacterial strains) or SC-ura (for yeast strains) plates. They were incubated for 20 h at 37 °C (bacteria) or 48 h at 30 °C (yeasts), and the level of growth was determined. […] Experiments were carried out at least three times.

Escherichia coli JM101 = assay: MIC, microdilution in culture medium, E. coli; type: cell-based; settings: 20 h, 37 °C, average of at least three experiments; for MIC: Escherichia coli, JM101, read-out: MIC, Bacteria, E. coli JM101
Excerpt: The microorganisms used for the susceptibility tests were the bacteria Escherichia coli JM101 and Staphylococcus aureus BHI, and the yeast Saccharomyces cerevisiae strains BY4741 (MAT a his3Δ1 leu2Δ0 met15Δ0 ura3Δ0 (EUROSCARF)) carrying YEplac195 (from EUROSCARF) or YEPlac195-PDR5 (provided by Ayse Banu Demir, Izmir University of Economics, Turkey) plasmids.
Bacterial strains were usually maintained and grown in an LB medium (0.5% (w/v) yeast extract, 1% (w/v) bactotryptone, and 1% (w/v) NaCl) at 37 °C. For MIC (minimal inhibitory concentration) and MMC (minimal microbicidal concentration) assays, and for the determination of synergies, overnight growth was carried out in 2% (w/v) bactopeptone (BP), and then the cultures were diluted and incubated for several hours in 2% (w/v) BP for ensuring logarithmic growth. Yeast strains were grown in an SC-ura medium (0.17% (w/v) yeast nitrogen base without amino acids and ammonium sulphate, 0.2% (w/v) drop-out without uracil, 0.5% (w/v) (NH4)2SO4, and 2% (w/v) glucose) at 30 °C. Liquid cultures were incubated with shaking (200 rpm). Solid media also contained 2% (w/v) agar.
For the analysis of the antimicrobial activity, the strategies and indications of Cushnie et al. were considered. The standardised method of microdilution in a culture medium was followed to determine the MIC [55]. In bacterial strains, serial dilutions of the compounds to be tested and the control antibiotics were prepared in phosphate buffer (20 mM, pH 7.4, 0.5 mL) and were mixed with a suspension of bacterial cells in a logarithmic growth phase (in 1% BP, 0.5 mL). The final OD600 of the whole solutions were 0.004 and 0.008 for E. coli and S. aureus cultures, respectively. After 20 h of incubation at 37 °C with shaking, the MIC was determined as the lowest concentration of each compound in which no visible bacterial growth was observed.

BY4741/PDR5 = assay: Checkerboard titration synergy, BY4741/PDR5; type: cell-based, Saccharomyces cerevisiae; settings: synergistic when FICI ≤0.5
Method: The combined antimicrobial activity of the test compounds with the antibacterial or antifungal control agents was performed under the same conditions used for the MIC determination and following the procedures described by Carton Herrán, Reis de Sá et al. and Zharkova et al.. For each experiment, 16 samples (4 rows × 4 columns) in a total volume of 0.5 mL were prepared in tubes using an array of combinations between the MIC value and 0 μg/mL of the compound to be tested in each row, and between the MIC value and 0 μg/mL of the reference drug in each column. In this way, a variety of mixtures with different concentrations of them alone or in combination was obtained. Briefly, 0.5 mL of a microorganism culture was added to each one of the samples, and after incubation for 24 h with shaking at the appropriate temperature (37 °C or 30 °C), the tubs were visually inspected, and the OD600 was measured. From this information, the fractional inhibitory concentration index (FICI) was calculated according to the formula FIC index = ([A]/[CMI A]) + ([B]/[CMI B]), where [A] and [B] are respective concentrations of tested polyamine and reference drug in their combination effectively inhibiting the growth of bacteria or yeast, and [MIC A] and [MIC B] are the individual MICs of the tested polyamine and reference drug when they are used alone. An interaction is considered synergistic when the FICI value is ≤0.5 [41, 42].
To confirm the data obtained in the checkerboard assay, 30 μL of a ten-fold dilution of the tubes containing concentrations of half of the MIC of each one of the compounds alone (polyamine to be tested and reference drug) and one fourth of the MIC of each one in combination were also spread in LB or SC-ura plates (according to the microorganism considered in each case) and incubated at 37 °C or 30 °C. The visualisation of these plates was performed after 24 or 48 h, respectively. All these experiments were carried out in triplicate.

[1] = Cytotoxicity, flow cytometry viability assay with propidium iodide; type: cell-based, human; settings: human, Jurkat cells (human lymphocytic leukaemia, ATCC TIB-152), 24 h treatment, average of three experiments, read-out: IC50, cytotoxicity on the human Jurkat cell line
Method: The cytotoxicity of the compounds was assessed via flow cytometry with a viability assay using propidium iodide (PI), a DNA-binding fluorescent probe not permeant to live cells, which is commonly used to detect dead cells in a population. The human lymphocytic leukaemia Jurkat cell line (ATCC TIB-152) was obtained from the American Type Cell Culture (Sigma-Aldrich) and grown in suspension in an RPMI 1640 medium (Thermo Fisher Scientific, Waltham, MA, USA) supplemented with L-glutamine, antibiotics, and 10% heat-inactivated foetal calf serum (FCS, Thermo Fisher Scientific, Waltham, MA, USA). For the viability assay, cells were seeded in plastic 96-well plates at […] in an RPMI 1640 medium supplemented with 5% FCS. The cells were treated for 24 h with a range of concentrations of the test compounds or with the same volume of phosphate buffer (PBS) in control wells. After incubation, cell suspensions were washed, resuspended in 400 μL fresh medium, and incubated for 5 min at room temperature in the dark with 3.75 μM PI (Sigma-Aldrich). Cell viability was determined via flow cytometry using a Gallios flow cytometer (Beckman Coulter). PI fluorescence was excited with an argon-ion laser at 488 nm and collected through a 620/630 nm band-pass emission. Cellular events were discriminated from debris using forward scatter (FS) and side scatter (SS) signals. Cell aggregates were excluded from analysis based on FS-integral and FS-peak. The gates applied for population discrimination were set manually based on control samples. For each sample, 10,000 events were collected. For further analysis, the cytometric data were exported to Kaluza 2.1 software (Beckman Coulter, Brea, CA, USA). Dead cells were identified and quantified as PI-positive events. The cytotoxic potency of test compounds was quantified using their IC50 values, i.e., the compound concentration at which cell viability is inhibited by 50%, as calculated via curve fitting and determined with the correlation coefficient (R2) using GraphPad Prism 9.0 software. Experiments were carried out in triplicate.

Compound | Minimal fungicidal concentration (MFC), S. cerevisiae Strains (S. cerevisiae strains) | MIC (Escherichia coli JM101) [µg/mL] | Synergy with Amphotericin B (BY4741/PDR5) | Synergy with Cycloheximide (BY4741/PDR5) | IC50 at 24 h [1] [µg/mL] | MIC, Bacteria, E. coli JM101 (Escherichia coli JM101) [µg/mL]
c1cc2nc(c1)CNCCN(CCNCc1ccc3c(c1)OCO3)CCNC2 [Compound 5a, 2-(3,6,9-triaza-1(2,6)-pyridinacyclodecaphane-6-yl)-N-(benzo[d][1,3]dioxol-5-ylmethyl)ethan-1-amine] | Fungistatic | 5 | positive results and + | positive results and + | 37.8 (≈ 98.7 µM) | –
N^1-(benzo[d][1,3]dioxol-5-ylmethyl)-N^3-(2-((2-((3-((benzo[d][1,3]dioxol-5-ylmethyl)amino)propyl)amino)ethyl)(2-((3-(((2,3-dihydrobenzofuran-6-yl)methyl)amino)propyl)amino)ethyl)amino)ethyl)propane-1,3-diamine [Compound 4a] | Fungistatic | – | positive results and + | positive results and + | – | 5
c1cc2nc(c1)CNCCN(CCNCc1ccc3c(c1)CCO3)CCNC2 [Compound 8a, 2-(3,6,9-triaza-1(2,6)-pyridinacyclodecaphane-6-yl)-N-((2,3-dihydrobenzofuran-5-yl)methyl)ethan-1-amine] | – | 15 | – | – | 128 (≈ 335 µM) | –
Oc1ccc(CNCCN2CCNCc3cccc(n3)CNCC2)cc1 [Compound 7a] | – | 13 | – | – | 951 (≈ 2670 µM) | –
Oc1ccccc1CNCCN1CCNCc2cccc(n2)CNCC1 [Compound 6a] | Fungistatic | 2.5 | positive results and + | positive results and + | 98 (≈ 276 µM) | –
